Data from patent publication US20220089540A1 (Board of Trustees of Michigan State University, priority 2019, published 2022).
Where “and” joins values, the source holds several entries; their conditions need not be identical. Identical values can stand only once. Like-named read-outs stand apart in the source and are kept apart here.

Tests used:
LogD at pH 7.4 = format: physicochemical; conditions: pH 7.4 buffer
Method: Note that for Table 6, Log D is the distribution constant, which is descriptor of the lipophilicity of a molecule. This was determined using an aqueous phase that was adjusted to pH 7.4 using a buffer.

[1] = tested on: inducible nitric oxide synthase (iNOS); assay: iNOS suppression / NO assay in LPS-stimulated macrophages or RAW264.7 cells (Griess reaction); format: cell-based, mouse; conditions: for activity at 0.3 µM / activity at 0.1 µM / activity at 0.125 µM / activity at 0.5 µM: Mus musculus; for activity at 0.3 µM / activity at 0.1 µM: RAW264.7, 24 h; for activity at 0.1 µM: at 100 nM
Method: Macrophages or RAW264.7 like-cells were treated with various concentrations of rexinoids and stimulated with lipopolysaccaride (LPS) to activate inducible nitric oxide synthase (iNOS) to produce nitric oxide. This in vitro iNOS assay was rapid, reproducible, quantitative and predictive. Nitric oxide is implicated in the apoptosis of cancer cells via regulation of RXRs. There is a tight correlation between the % reduction of iNOS and efficacy in preclinical lung cancer models. Lower numbers indicate higher efficacy.
RAW264.7 cells were incubated with 300 nM rexinoids and stimulated with 1-2 ng/ml lipopolysaccaride (LPS) for 24 hours to activate inducible nitric oxide synthase (iNOS) to produce nitric oxide. Nitric oxide released into the media was measured by the Griess reaction.
Also, for Table 6, the iNOS suppression is the percent of the LPS-stimulated control where the compounds were measured at 100 nM or 300 nM.
Macrophages or RAW264.7 cells were treated with various concentrations of rexinoids listed in Table 7 and stimulated with lipopolysaccaride (LPS) to activate inducible nitric oxide synthase (iNOS) to produce nitric oxide. Nitric oxide (NO) is implicated in the apoptosis of cancer cells via regulation of RXRs. There is a tight correlation between the % reduction of iNOS and efficacy in preclinical lung cancer models. The in vitro iNOS assay is rapid, reproducible, quantitative and predictive, as NO production is measured in culture medium using the Griess reaction. Values are either presented as % inhibition or IC50 values.

SREBP = SREBP induction in human liver (HepG2) cells, RT-PCR; format: cell-based; parameters: key to SREBP: fold induction vs DMSO control; conditions: for SREBP activation: fold induction compared to DMSO, several values per cell, Table 6; for SREBP: 300 nM, Control 1.00, lower numbers indicate better safety, Table 2
Method: The SREBP transcription factor is involved in triglyceride synthesis, and its activation correlates with increased triglycerides in vivo. […] Lower numbers indicate better safety. […] Lower numbers indicate better safety. Also, for Table 6, SREBP activation was measured as fold induction compared to DMSO, where a lower value indicates the compound is an improvement over a control.

PD-L1 = PD-L1 induction in macrophages or RAW264.7 cells with cancer cell conditioned media (flow cytometry); format: cell-based, mouse; conditions: for PD-L1: Table 2, Control 39.8, higher numbers indicate better upregulation; for PD-L1 Levels: Table 4, Control 43.3
Method: RAW 264.7 mouse macrophage-like (ATCC) and E18-14C-27 (Wu et al., Cancer Res. 62, 6376-6380 (2002)) cells were cultured in DMEM supplemented with 10% fetal bovine serum (FBS). RAW 264.7 cells were cultured at 50000/well in a 6 well plate for 24 hours to determine PD-L1 levels. E18-14C-27 cells were cultured for 72 hours in the presence of LG268 for protein levels. Conditioned media was collected from E18-14C-27 at 60-70% confluence for 24 hours; media was then collected and centrifuged at 900 rpm for 5 minutes to eliminate any cell debris.
For PD-L1 staining, RAW 264.7 cells were plated at 25000 cells/ml in 6 well plates for 24 hours before adding conditioned media from E18-14C-27 and LG268. RAW 264.7 cells were cultured for additional 24 hours with E18-14C-27 conditioned media and LG268. […] THP-1 cells were stained and analyzed for the levels of PD-L1 following the same protocol.
Inhibitory receptors on lymphocytes such as PD-1 (programmed cell death protein 1) are important immune checkpoints that protect against autoimmunity as the interaction between PD-L1 (ligand) and the PD-1 receptor expressed on immune cells suppresses T cell activity. Immuno-oncology is revolutionizing cancer treatment, and enormous research efforts are ongoing to identify drugs that upregulate PD-L1 so that they can be combined with checkpoint inhibitors to boost efficacy. Macrophages or RAW264.7 cells are treated with conditioned media from cancer cells and rexinoids, and PD-L1 expression determined by flow cytometry. Higher numbers indicate better upregulation of PD-LI.
Using methods described herein, macrophages or RAW264.7 cells were treated with selected rexinoids and with conditioned media from cancer cells. Structures of the rexinoids are shown below.
PD-L1 expression was determined by flow cytometry.

human RXRa = molecular target: T1, human RXRa (Homo sapiens, UniProt P19793); assay: RXR activation luciferase reporter assay; format: cell-based; conditions: luciferase, Control 0, higher numbers indicate higher potency
T1 sequence (P19793 1-462): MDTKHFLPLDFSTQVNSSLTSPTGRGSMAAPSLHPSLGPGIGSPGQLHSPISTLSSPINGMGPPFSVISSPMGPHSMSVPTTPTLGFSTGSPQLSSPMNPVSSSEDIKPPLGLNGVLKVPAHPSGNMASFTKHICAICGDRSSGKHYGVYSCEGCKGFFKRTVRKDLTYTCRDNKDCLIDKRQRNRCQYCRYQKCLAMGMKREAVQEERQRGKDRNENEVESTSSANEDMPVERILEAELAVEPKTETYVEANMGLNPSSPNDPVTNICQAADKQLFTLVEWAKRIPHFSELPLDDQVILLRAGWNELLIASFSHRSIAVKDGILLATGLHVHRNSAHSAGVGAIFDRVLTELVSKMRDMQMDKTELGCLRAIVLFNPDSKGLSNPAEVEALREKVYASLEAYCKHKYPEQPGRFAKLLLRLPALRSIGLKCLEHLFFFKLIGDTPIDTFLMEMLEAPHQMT
Source text: Rexinoids are agonists for the retinoid X receptors (RXRs). In this assay, the human RXRa promoter is functionally linked to a luciferase reporter gene. Changes in luciferase expression served as a sensitive surrogate measure of RXR activity. Higher numbers indicate higher potency.

[2] = tested on: mammary gland tumors of MMTV-Neu mice; assay: MMTV-Neu mouse model of HER2 positive breast cancer, rexinoid in diet; conditions: 100 mg/kg diet; LG268 5 days, CW-V-125 10 days; western blot and/or immunohistochemistry
Method: Tumors or mammary glands were homogenized in EBC buffer (1M Tris pH 8, 5M NaCl) with the same protease inhibitors and 10% NP-40 and incubated on ice for 30 min. Protein concentrations were determined by the BCA assay (Sigma-Aldrich). Proteins were resolved by SDS-PAGE, transferred to a nitrocellulose membrane and analyzed with the following antibodies: vinculin, p-STAT1, p-STAT3, p-STAT5 and mouse and rabbit secondary antibodies (Cell Signaling); PD-1, CD206 (Abcam); PD-L1 (R&D). ImageJ was used to quantify the immunoblots, and results were plotted and statistically analyzed using Prism 6. All images shown are representative of 3 independent experiments.
One third of the tumor, mammary gland and spleen removed from MMTV-neu or MMTV-PyMT mice were minced separately and incubated in digestion media consisting of collagenase (300 U/ml, Sigma), dispase (1 U/ml, Worthington), and DNAse (2 U/ml, Calbiochem) for 30 minutes at 37° C. with stirring. Cells were then passed through a 40 μm cell strainer (BD Falcon), and red blood cells eliminated with lysis solution. […] Propidium iodide staining was used to exclude dead cells.
One third of the tumor, spleen and one mammary was removed from MMTV-neu and PyMT mice and fixed in 10% phosphate-buffered formalin for 48 hours, embedded in paraffin blocks, and sectioned (5-6 μm). Hydrogen peroxide was used to quench endogenous peroxidase activity. Sections were immunostained with antibodies raised against CD206 (1:200, Abcam), Gr1 (1:40, BM8, R&D), CD8 (1:40, Biolegend), FOXP3 (1:50, EBiosciences), PD-1 (1:100, Abcam), PD-L1 (1:50, Abcam), cleaved caspase 3 (Cell Signaling) and visualized with biotinylated anti-rabbit or anti-rat secondary antibodies (Cell Signaling or Vector Labs). Signal was detected using a DAB substrate (Cell Signaling) following the manufacturer's recommendations. Sections were counterstained with hematoxylin (Vector Labs).
Both rexinoid treatments were 100 mg/kg of diet, which is equivalent to 25 mg/kg of body weight (FIG. 1B).

[3] = at 300 nM, percent of the LPS-stimulated control, lower is better, Table 6, read-out: iNOS suppression
[4] = percent of the LPS-stimulated control, lower is better, Table 6
[5] = RAW264.7, 125 nM, Control 100, lower numbers indicate higher efficacy, read-out: NO Assay
[6] = RAW264.7, 500 nM, Control 100, lower numbers indicate higher efficacy, read-out: NO Assay

Structure (SMILES) | logD (LogD at pH 7.4) | PD-L1 (PD-L1; 100 nM) | SREBP (SREBP) | activity at 0.125 µM ([1]; RAW264.7, read-out: NO Assay) [%] | activity at 0.5 µM ([1]; RAW264.7, read-out: NO Assay) [%] | further results
CCN(c1cc(C(C)(C)C)cc(C(C)(C)C)c1)c1ncc(C(=O)O)cn1 [drawing 106] | 2.3 | – | – | – | – | activity at 0.3 µM [1, 3]: 55%; SREBP activation (SREBP): 3.5 fold induction and 1.8 fold induction
Cc1cc(OCC(C)C)c(C(C)C)cc1C1(c2ccc(C(=O)O)cn2)CC1 | 2.6 | – | – | – | – | –
CC(C)(C)c1cc(C(C)(C)C)cc(C2(c3ccc(C(=O)O)cn3)CC2)c1 | 2.8 | – | – | – | – | –
CCCN(c1cc(C(C)(C)C)cc(C(C)(C)C)c1)c1ccc(C(=O)O)cn1 [drawing 117] | 3.4 | – | – | – | – | activity at 0.1 µM [1, 4]: 22%; activity at 0.3 µM [1, 3]: 13%; SREBP activation (SREBP): 1.95 fold induction and 2.9 fold induction
CCCN(c1cc(C(C)(C)C)cc(C(C)(C)C)c1)c1ccc(C(=O)O)cn1 [Compound 13, 6-[(3,5-di-tert-butylphenyl)(propyl)amino]pyridine-3-carboxylic Acid] | – | 67.9 | 2.44 | – | – | activity at 0.125 µM [1, 5]: 94.5%; activity at 0.5 µM [1, 6]: 32%; RXR assay (human RXRa; 100 nM): 16063; RXR assay (human RXRa; 2500 nM): 26703
C=C(c1ccc(C(=O)O)cc1)c1cc(C(C)C)c(OCC(C)C)cc1C [drawing 111] | 3.5 | – | – | – | – | activity at 0.3 µM [1, 3]: 40%; SREBP activation (SREBP): 1.2 fold induction
CC(C)(C)c1cc(-n2c(C(F)(F)F)nc3cc(C(=O)O)ccc32)cc(C(C)(C)C)c1 [Compound 7, 1-(3,5-di-tert-butylphenyl)-2-(trifluoromethyl)-1H-1,3-benzodiazole-5-carboxylic Acid] | – | 44.2 | 1.57 | 38.7 | 23.6 | activity at 0.3 µM ([1]; read-out: iNOS (300 nM)): 55%
CCN(c1cc(C(C)(C)C)cc(C(C)(C)C)c1)c1ccc(C(=O)O)cn1 [Compound 9, 6-[(3,5-di-tert-butylphenyl)(ethyl)amino]pyridine-3-carboxylic Acid] | – | 39.7 | 2.70 | 76.3 | 26.8 | activity at 0.3 µM ([1]; read-out: iNOS (300 nM)): ~25%
CCCCN(c1cc(C(C)(C)C)cc(C(C)(C)C)c1)c1ccc(C(=O)O)cn1 [Compound 19] | – | 50.2 | 4.77 | – | – | activity at 0.125 µM [1, 5]: 45.6%; activity at 0.5 µM [1, 6]: 9.4%; RXR assay (human RXRa; 100 nM): 13422; RXR assay (human RXRa; 2500 nM): 24350
C/C(=C/C=C/C(C)=C/C(=O)O)c1cc(C(C)(C)C)cc(C(C)(C)C)c1OCC(F)F [LG101506, reference compound] | – | 67.2 | 1.12 | – | – | NO Assay ([1]; 125 nM, Control 100, lower numbers indicate higher efficacy): 56.3; NO Assay ([1]; 500 nM, Control 100, lower numbers indicate higher efficacy): 16.3; RXR assay (human RXRa; 100 nM): 1077; RXR assay (human RXRa; 2500 nM): 558
C=C(c1ccc(C(=O)O)cc1)c1cc(C(C)(C)C)cc(C(C)(C)C)c1 [Compound 3, 4-[1-(3,5-di-tert-butylphenyl)ethenyl]benzoic Acid] | – | 26.5 | 1.14 | 42.5 | 19.8 | activity at 0.3 µM ([1]; read-out: iNOS (300 nM)): ~65%; RXR assay (human RXRa; 100 nM): 523; RXR assay (human RXRa; 2500 nM): 8163
CC(/C=C/[C@@H]1C[C@]1(C)c1ccc2c(c1)C(C)(C)CCC2(C)C)=C\C(=O)O [VTP194204] | – | – | – | – | – | PD-L1 Levels (PD-L1; 100 nM): 63.8; PD-L1 Levels (PD-L1; 1000 nM): 70.9
CCN(c1ccc(C(=O)O)cn1)c1cc2c(cc1C)C(C)(C)CCC2(C)C [CW-V-125] | – | – | – | – | – | PD-L1 expression in tumors vs control [2]: increases; PD-L1 Levels (PD-L1; 100 nM): 72.5; PD-L1 Levels (PD-L1; 1000 nM): 69.9
CCN(c1ccc(C(=O)O)cn1)c1cc(C(C)(C)C)ccc1C [Compound 12, 6-[(5-tert-butyl-2-methylphenyl)(ethyl)amino]pyridine-3-carboxylic Acid] | – | 45.8 | 1.69 | 44.2 | 16.7 | –
CCN(c1ccc2c(c1)C(C)(C)CCC2(C)C)c1ncc(C(=O)O)cn1 [CW-V-127] | – | – | – | – | – | PD-L1 Levels (PD-L1; 100 nM): 65.1; PD-L1 Levels (PD-L1; 1000 nM): 64.5
CCN(c1cc(C(C)(C)C)cc(C(C)(C)C)c1)c1ncc(C(=O)O)cn1 [Compound 10, 2-[(3,5-di-tert-butylphenyl)(ethyl)amino]pyrimidine-5-carboxylic Acid] | – | 32 | 1.44 | 48.6 | 19 | RXR assay (human RXRa; 100 nM): 1007; RXR assay (human RXRa; 2500 nM): 17963
CC(C)(C)c1cc(N(CC2CC2)c2ccc(C(=O)O)cn2)cc(C(C)(C)C)c1 [drawing 118] | 3.4 | – | – | – | – | activity at 0.1 µM [1, 4]: 19%; activity at 0.3 µM [1, 3]: 13%
C=C(c1ccc(C(=O)O)cc1)c1cc(C(C)(C)C)cc(C(C)(C)C)c1 [drawing 116] | 3.8 | – | – | – | – | activity at 0.3 µM [1, 3]: 61%
CCN(c1cc(C(F)(F)F)cc(C(F)(F)F)c1)c1ccc(C(=O)O)cn1 [Compound 15, 6-{[3,5-bis(trifluoromethyl)phenyl](ethyl)amino}pyridine-3-carboxylic Acid] | – | 34.8 | 1.11 | 87 | 27.9 | –
CCN(c1ccc(C(=O)O)cc1)c1cc(C(C)(C)C)cc(C(C)(C)C)c1 [Compound 8, 4-[(3,5-di-tert-butylphenyl)(ethyl)amino]benzoic Acid] | – | 31.2 | 1.95 | > 80 | 31.5 | RXR assay (human RXRa; 100 nM): 1009; RXR assay (human RXRa; 2500 nM): 23514
CC(C)(C)c1cc(N(CC2CC2)c2ccc(C(=O)O)cn2)cc(C(C)(C)C)c1 [Compound 14, 6-[(cyclopropylmethyl)(3,5-di-tert-butylphenyl)amino]pyridine-3-carboxylic Acid] | – | 46.2 | 2.37 | 78.2 | 25.9 | –
